Assay results: patent US4160829A, “Antibacterial 1,2,4-oxadiazolylacetamido cephalosporins” (Gist-Brocades N.V., priority 1972, dated 1979)
In brackets after ≈: the same amount, converted by molar mass. Like-named read-outs stand apart in the source and are kept apart here.

Experiments:
[1] = system: Staph.aureus A 355; test: micro serial dilution test; type: cell-based, Staphylococcus aureus; conditions: Staphylococcus aureus, A355; micro serial dilution (in brackets), about 18 hours, 30° C. or 37° C.; penicillinase-producing strain; read-out: minimal inhibitory concentration (MIC)
[2] = system: Past.multo. A 723; test: agar serial dilution test; type: cell-based, Pasteurella multocida; conditions: Pasteurella multocida; agar serial dilution, 24 hours, 37° C.; read-out: minimal inhibitory concentration (MIC)
[3] = system: Esch.coli U 20; test: agar serial dilution test; type: cell-based, Escherichia coli; conditions: Escherichia coli
[4] = system: Staph.aureus A 2001; test: agar serial dilution test; type: cell-based, Staphylococcus aureus; conditions: Staphylococcus aureus, A2001, 24 h, agar serial dilution, 24 hours, 37° C.; read-out: minimal inhibitory concentration (MIC)
[5] = system: Prot.rettg. A 821; test: micro serial dilution test; type: cell-based, Proteus rettgeri; conditions: Providencia rettgeri; micro serial dilution (in brackets), about 18 hours, 30° C. or 37° C.; read-out: minimal inhibitory concentration (MIC)
[6] = system: Salm.dubl. P 43; test: agar serial dilution test; type: cell-based, Salmonella dublin; conditions: Salmonella enterica; agar serial dilution, 24 hours, 37° C.; read-out: minimal inhibitory concentration (MIC)
[7] = system: Kleb.pneum. A 809; test: agar serial dilution test; type: cell-based, Klebsiella pneumoniae; conditions: Klebsiella pneumoniae; agar serial dilution, 24 hours, 37° C.; read-out: minimal inhibitory concentration (MIC)
[8] = system: Strep. faec. L 80; test: agar serial dilution test; type: cell-based, Streptococcus faecalis; conditions: Enterococcus faecalis; agar serial dilution, 24 hours, 37° C.; read-out: minimal inhibitory concentration (MIC)
[9] = system: Staph.aureus A 2001; test: micro serial dilution test; type: cell-based, Staphylococcus aureus; conditions: Staphylococcus aureus, A2001, 18 h, micro serial dilution (in brackets), about 18 hours, 30° C. or 37° C.; read-out: minimal inhibitory concentration (MIC)
[10] = system: Prot.mirab. H 3; test: agar serial dilution test; type: cell-based, Proteus mirabilis; conditions: Proteus mirabilis; agar serial dilution, 24 hours, 37° C.; read-out: minimal inhibitory concentration (MIC)
[11] = system: Staph.aureus A 355; test: agar serial dilution test; conditions: Staphylococcus aureus, A355, 24 h, read-out: minimal inhibitory concentration (MIC), agar serial dilution, 24 hours, 37° C.; penicillinase-producing strain
[12] = system: Salm.typh. R 127; test: agar serial dilution test; type: cell-based; conditions: 24 h, 37° C., read-out: minimal inhibitory concentration (MIC)
[13] = system: Prot.mirab. L 93; test: agar serial dilution test; type: cell-based, Proteus mirabilis; conditions: Proteus mirabilis; agar serial dilution, 24 hours, 37° C.; read-out: minimal inhibitory concentration (MIC)
[14] = system: Staph.aureus A 321; test: agar serial dilution test; type: cell-based, Staphylococcus aureus; conditions: Staphylococcus aureus, A321, 24 h, agar serial dilution, 24 hours, 37° C.; read-out: minimal inhibitory concentration (MIC)
[15] = system: Pseud.aerug. 2396; test: agar serial dilution test; type: cell-based; conditions: agar serial dilution, 24 hours, 37° C.; read-out: minimal inhibitory concentration (MIC)
[16] = system: Pseud.aerug. H 10; test: agar serial dilution test; type: cell-based; conditions: agar serial dilution, 24 hours, 37° C.; read-out: minimal inhibitory concentration (MIC)
[17] = system: Dipl.pneum. L 54; test: agar serial dilution test; type: cell-based, Diplococcus pneumoniae; conditions: Streptococcus pneumoniae; agar serial dilution, 24 hours, 37° C.; read-out: minimal inhibitory concentration (MIC)
[18] = system: Prot.morg. 2241; test: agar serial dilution test; type: cell-based; conditions: 24 h, agar serial dilution, 24 hours, 37° C.; read-out: minimal inhibitory concentration (MIC)
[19] = system: Pseud.aerug. Wyeth A 1058; test: agar serial dilution test; type: cell-based; conditions: agar serial dilution, 24 hours, 37° C.; read-out: minimal inhibitory concentration (MIC)
[20] = system: Bac.Subt.ATCC 6633; test: agar serial dilution test; type: cell-based, Bacillus subtilis; conditions: Bacillus subtilis, ATCC6633, 24 h, agar serial dilution, 24 hours, 37° C.; read-out: minimal inhibitory concentration (MIC)
[21] = system: Staph.aureus A 2000; test: micro serial dilution test; type: cell-based, Staphylococcus aureus; conditions: Staphylococcus aureus, A2000, 18 h, micro serial dilution (in brackets), about 18 hours, 30° C. or 37° C.; read-out: minimal inhibitory concentration (MIC)
[22] = system: Prot.mirab. A 1200; test: agar serial dilution test; type: cell-based, Proteus mirabilis; conditions: Proteus mirabilis, 24 h, agar serial dilution, 24 hours, 37° C.; read-out: minimal inhibitory concentration (MIC)
[23] = system: Staph.aureus A 2000; test: agar serial dilution test; type: cell-based, Staphylococcus aureus; conditions: Staphylococcus aureus, A2000, 24 h, agar serial dilution, 24 hours, 37° C.; read-out: minimal inhibitory concentration (MIC)
[24] = system: Prot.rettg. A 821; test: agar serial dilution test; type: cell-based, Proteus rettgeri; conditions: Providencia rettgeri, 24 h, read-out: minimal inhibitory concentration (MIC)
[25] = system: Bruc.melit. A 488; test: microbe, parasite or virus in culture; type: cell-based; conditions: Brucella melitensis, 24 h, read-out: minimal inhibitory concentration (MIC)
[26] = system: Haem.infl. A 1030; test: micro serial dilution test; type: cell-based; conditions: 18 h, micro serial dilution (in brackets), about 18 hours, 30° C. or 37° C.; read-out: minimal inhibitory concentration (MIC)
[27] = system: Shig.equir. T 3; test: agar serial dilution test; type: cell-based; conditions: 24 h, 37° C., read-out: minimal inhibitory concentration (MIC)
[28] = system: Strep.haem. A 266; test: micro serial dilution test; type: cell-based, Streptococcus haemolyticus; conditions: Streptococcus; micro serial dilution (in brackets), about 18 hours, 30° C. or 37° C.; read-out: minimal inhibitory concentration (MIC)
[29] = system: Strep.haem. A 266; test: agar serial dilution test; type: cell-based, Streptococcus haemolyticus; conditions: Streptococcus; agar serial dilution, 24 hours, 37° C.; read-out: minimal inhibitory concentration (MIC)
[30] = blood and urine contents after intramuscular administration in rabbits; type: in vivo, rabbits "Nieuw Zeelander"; conditions: rabbit, im, intramuscular 50 mg/kg
Experimental: (d) the blood and urine contents of the above-indicated compound G and of monosodium 7-[(3-carboxymethyl-1,2,4-oxadiazol-5-yl)acetamido]-3-acetoxymethyl-3-cephem-4-carboxylate (as prepared in example 35) were determined after intramuscular administration of these compounds in an aqueous solution in rabbits, as listed below:
test animals: rabbits "Nieuw Zeelander"
Each testgroup consisted of 3 rabbits.
Vehiculum: Physiol. saline solution
Bloodsamples were taken after 1/4--1/2--1--2--4 hours Urinesamples were taken after 1--3--6--24--27 hours (in practice only the secreted amounts after 6 and 24 hours were used).
Testorganisms: Bacillus subtilis ATCC 6633 and Bacillus callidolactis E 16.
The contents of the compounds in the samples were determined microbiologically.
(Only microbiologically detected concentrations, i.e. anti-bacterially active concentrations only have been indicated and determined in relation to the original administered compound).

[31] = U20, agar serial dilution, 24 hours, 37° C., read-out: minimal inhibitory concentration (MIC)
[32] = agar serial dilution, 24 hours, 37° C.

| SMILES | MIC [1] [µg/mL] | MIC [2] [µg/mL] | MIC [4] [µg/mL] | MIC [6] [µg/mL] | MIC [7] [µg/mL] | MIC [8] [µg/mL] | MIC [9] [µg/mL] | MIC [10] [µg/mL] | MIC [11] [µg/mL] | MIC [12] [µg/mL] | MIC [13] [µg/mL] | MIC [14] [µg/mL] | MIC [15] [µg/mL] | MIC [16] [µg/mL] | MIC [17] [µg/mL] | MIC [18] [µg/mL] | MIC [19] [µg/mL] | MIC [20] [µg/mL] | MIC [21] [µg/mL] | MIC [22] [µg/mL] | also measured |
| --- | --- | --- | --- | --- | --- | --- | --- | --- | --- | --- | --- | --- | --- | --- | --- | --- | --- | --- | --- | --- | --- |
| Cc1nnc(SCC2=C(C(=O)O)N3C(=O)[C@@H](NC(=O)Cn4cnnn4)[C@H]3SC2)s1 [Cephazolin, reference compound] | 0.6 (≈ 1.32 µM) | 1.5 (≈ 3.3 µM) | 0.5 (≈ 1.1 µM) | 1.5 (≈ 3.3 µM) | 1.5 (≈ 3.3 µM) | 12.5 (≈ 27.5 µM) | 0.45 (≈ 0.99 µM) | 6 (≈ 13.2 µM) | 1.5 (≈ 3.3 µM) | 3 (≈ 6.6 µM) | 1.5 (≈ 3.3 µM) | 0.25 (≈ 0.55 µM) | > 100 | > 100 | 0.25 (≈ 0.55 µM) | 25 (≈ 55 µM) | > 100 | 0.25 (≈ 0.55 µM) | 0.9 (≈ 1.98 µM) | 6 (≈ 13.2 µM) | MIC [3, 31]: 1.5 µg/mL (≈ 3.3 µM); MIC [5]: 1.2 µg/mL (≈ 2.64 µM); MIC [23]: 0.75 µg/mL (≈ 1.65 µM) |
| CCc1noc(CC(=O)N[C@@H]2C(=O)N3[C@@H]2SC(C)(C)[C@@H]3C(=O)O)n1 [Example 11G, sodium 6-[(3-ethyl-1,2,4-oxadiazol-5-yl)-acetamido]-penicillanate H2 O] | 30 | 1 | 1 | 12.5 | > 100 | 3 | 3.7 | > 100 | 3 | 25 | 12.5 | 0.12 | > 100 | > 100 | 0.25 | > 100 | > 100 | 0.03 | 23 | 100 | MIC [24, 32]: 3 µg/mL; MIC [3, 31]: 100 µg/mL; MIC [25]: 1.5 µg/mL; MIC [26]: 125 µg/mL; MIC [27]: 10 µg/mL; MIC [28]: 0.5 µg/mL; MIC [23]: 1.5 µg/mL |
| Cc1nc(CC(=O)N[C@@H]2C(=O)N3C(C(=O)O)=C(CN=[N+]=[N-])C[S+]([O-])[C@H]23)no1 (some centres unmarked) [Example 19, R-sulfoxide of 7-[(5-methyl-1,2,4-oxadiazol-3-yl)-acetamido]-3-azidomethyl-3-cephem-4-carboxylic acid] | 15 (≈ 37.9 µM) | 25 (≈ 63.2 µM) | 6 (≈ 15.2 µM) | 25 (≈ 63.2 µM) | 50 (≈ 126 µM) | > 100 | 6 (≈ 15.2 µM) | 50 (≈ 126 µM) | 12.5 (≈ 31.6 µM) | 100 (≈ 253 µM) | 25 (≈ 63.2 µM) | 6 (≈ 15.2 µM) | > 100 | > 100 | 3 (≈ 7.59 µM) | > 100 | > 100 | 0.5 (≈ 1.26 µM) | 5 (≈ 12.6 µM) | > 100 | MIC [24, 32]: 6 µg/mL (≈ 15.2 µM); MIC [3, 31]: 100 µg/mL (≈ 253 µM); MIC [29]: 0.5 µg/mL (≈ 1.26 µM); MIC [25]: 6 µg/mL (≈ 15.2 µM); MIC [26]: 23 µg/mL (≈ 58.2 µM); MIC [27]: 6 µg/mL (≈ 15.2 µM); MIC [23]: 6 µg/mL (≈ 15.2 µM) |
| C=CCNC(=O)Cc1nc(CC(=O)N[C@@H]2C(=O)N3C(C(=O)O)=C(COC(C)=O)CS[C@H]23)no1 [Example 31, 7-[5-(N-propen-3-yl)-carbamoylmethyl-1,2,4-oxadiazol-3-yl-acetamido]-cephalosporanic acid] | 1.9 (≈ 3.96 µM) | 1.5 (≈ 3.13 µM) | 3 (≈ 6.26 µM) | 6 (≈ 12.5 µM) | 6 (≈ 12.5 µM) | 25 (≈ 52.1 µM) | 1.2 (≈ 2.5 µM) | 25 (≈ 52.1 µM) | 6 (≈ 12.5 µM) | 12.5 (≈ 26.1 µM) | 6 (≈ 12.5 µM) | 1.5 (≈ 3.13 µM) | > 100 | > 100 | 1.5 (≈ 3.13 µM) | > 100 | > 100 | 1 (≈ 2.09 µM) | 1.2 (≈ 2.5 µM) | 25 (≈ 52.1 µM) | MIC [24]: 12.5 µg/mL (≈ 26.1 µM); MIC ([3]; U20, 24 h, read-out: minimal inhibitory concentration (MIC), agar serial dilution, 24 hours, 37° C.): 12.5 µg/mL (≈ 26.1 µM); MIC [26]: ≥ 125 µg/mL; MIC [27]: 12.5 µg/mL (≈ 26.1 µM); MIC [28]: 2.5 µg/mL (≈ 5.21 µM); MIC [23]: 3 µg/mL (≈ 6.26 µM) |
| CC(=O)OCC1=C(C(=O)O)N2C(=O)[C@@H](NC(=O)Cc3nc(CC(=O)O)no3)[C@H]2SC1 [Example 35, Monosodium 7-[3-carboxymethyl-1,2,4-oxadiazol-5-yl-acetamido]-cephalosporanate] |  |  |  |  |  |  |  |  |  |  |  |  |  |  |  |  |  |  |  |  | concentration at 0.5 h ([30]; serum, after 1/2 hr, read-out: Serumlevel): 93.7 µg/mL; concentration at 0.25 h ([30]; serum, after 1/4 hr, read-out: Serumlevel): 119 µg/mL; concentration at 1 h ([30]; serum, after 1 hr, read-out: Serumlevel): 56 µg/mL; concentration at 2 h ([30]; serum, after 2 hr, read-out: Serumlevel): 15.4 µg/mL; concentration at 4 h ([30]; serum, after 4 hr, read-out: Serumlevel): 1.8 µg/mL; dose excreted at 6 h ([30]; urine, after 6 hr, read-out: Secretion of compound in urine in % of the administered dose): 35.9%; dose excreted at 24 h ([30]; urine, after 24 hr, read-out: Secretion of compound in urine in % of the administered dose): 51.4% |
